This test addresses T1, human P2X4 (Homo sapiens, UniProt Q99571).
T1 sequence (Q99571 1-388): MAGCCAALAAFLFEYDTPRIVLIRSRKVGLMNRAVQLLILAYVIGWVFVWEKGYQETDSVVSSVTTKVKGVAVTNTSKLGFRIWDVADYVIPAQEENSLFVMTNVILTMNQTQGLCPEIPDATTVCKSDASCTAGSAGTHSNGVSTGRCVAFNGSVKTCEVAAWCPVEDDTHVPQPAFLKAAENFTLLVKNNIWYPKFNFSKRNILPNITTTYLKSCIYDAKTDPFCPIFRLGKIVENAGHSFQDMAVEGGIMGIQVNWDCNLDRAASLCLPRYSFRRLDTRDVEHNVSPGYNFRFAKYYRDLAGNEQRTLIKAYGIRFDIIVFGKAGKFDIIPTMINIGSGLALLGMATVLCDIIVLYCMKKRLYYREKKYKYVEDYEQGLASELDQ
Put plainly: Human P2X4 HEK Cell FLIPR Assay. The format is cell-based. The following applies: agonist Bz-ATP at EC80; for Emax: HEK293, HEK293 cells, percentage of maximal inhibition, read-out: Human P2X4 HEK Cells (FLIPR Assay) avg Efficacy [%]; for IC50: HEK293 cells, individual values listed where some fall outside detection range. In short, it runs like this: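 HEK293 cells stably expressing human P2X4, Fluo8-AM loaded 30 min at 37° C, then compound 30 min at room temperature (0.5% DMSO, pH 7.4 buffer with 1.8 mM CaCl2). Bz-ATP at its daily-determined EC80 added; calcium fluorescence read over 120 sec; IC50 from peak RFU normalized to agonist control, triplicates.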

Molecules are shown by their SMILES.

A word on the IC50: it is the concentration needed to halve the response being measured. A low value points to higher potency. On to `NS(=O)(=O)c1cc(NC(=O)Cc2ccccc2Cl)ccc1-c1cncc(OC(F)(F)F)c1` [Example 307, 2-(2-Chlorophenyl)-N-{3-sulfamoyl-4-[5-(trifluoromethoxy)pyridin-3-yl]phenyl}acetamide], for which the Emax is 62% and the half-maximal inhibitory concentration (IC50) is 115 nM.

Take `NS(=O)(=O)c1cc(NC(=O)Cc2ccccc2Cl)ccc1-c1cnc(C2CC2)nc1` [Example 308, 2-(2-Chlorophenyl)-N-[4-(2-cyclopropylpyrimidin-5-yl)-3-sulfamoylphenyl]acetamide]: the Emax amounted to 91% and the IC50 is 64 nM.

`CCOc1ncc(-c2ccc(NC(=O)Cc3ccccc3Cl)cc2S(N)(=O)=O)cn1` [Example 309, 2-(2-Chlorophenyl)-N-[4-(2-ethoxypyrimidin-5-yl)-3-sulfamoylphenyl]acetamide]: the Emax was 93% and the IC50 was determined as 317 nM.

As for `CC(C)Nc1ncc(-c2ccc(NC(=O)Cc3ccccc3Cl)cc2S(N)(=O)=O)cn1` [Example 310, 2-(2-Chlorophenyl)-N-{4-[2-(propan-2-ylamino)pyrimidin-5-yl]-3-sulfamoylphenyl}acetamide], the Emax was 59% and the 50% inhibitory concentration (IC50) was determined as 86 nM.

Take `CC(C)Oc1ncc(-c2ccc(NC(=O)Cc3ccccc3Cl)cc2S(N)(=O)=O)cn1` [Example 311, 2-(2-Chlorophenyl)-N-{4-[2-(propan-2-yloxy)pyrimidin-5-yl]-3-sulfamoylphenyl}acetamide]: the Emax is 104% and the concentration for half-maximal inhibition (IC50) came out at 285 nM.

`CCNc1ncc(-c2ccc(NC(=O)Cc3ccccc3Cl)cc2S(N)(=O)=O)cn1` [Example 312, 2-(2-Chlorophenyl)-N-{4-[2-(ethylamino)pyrimidin-5-yl]-3-sulfamoylphenyl}-acetamide]: the Emax came to 69% and the 50% inhibitory concentration (IC50) came to 37 nM.

Take `Cc1ncc(-c2ccc(NC(=O)Cc3ccccc3Cl)cc2S(N)(=O)=O)cn1` [Example 313, 2-(2-Chlorophenyl)-N-[4-(2-methylpyrimidin-5-yl)-3-sulfamoylphenyl]acetamide]: the Emax amounted to 82% and the 50% inhibitory concentration (IC50) is 713 nM.

`CCCNc1ncc(-c2ccc(NC(=O)Cc3ccccc3Cl)cc2S(N)(=O)=O)cn1` [Example 314, 2-(2-Chlorophenyl)-N-{4-[2-(propylamino)pyrimidin-5-yl]-3-sulfamoylphenyl}-acetamide]: the Emax was 83% and the concentration for half-maximal inhibition (IC50) came out at 27 nM.

As to `NS(=O)(=O)c1cc(NC(=O)Cc2ccccc2Cl)ccc1-c1cnc(NCC(F)(F)F)nc1` [Example 315, 2-(2-Chlorophenyl)-N-(3-sulfamoyl-4-{2-[(2,2,2-trifluoroethyl)amino]pyrimidin-5-yl}phenyl)acetamide], the Emax came to 81% and the concentration for half-maximal inhibition (IC50) was determined as 34 nM.

As to `NS(=O)(=O)c1cc(NC(=O)Cc2ccccc2Cl)ccc1-c1cnc(OC2CCC2)nc1` [Example 316, 2-(2-Chlorophenyl)-N-{4-[2-(cyclobutyloxy)pyrimidin-5-yl]-3-sulfamoylphenyl}acetamide], the Emax is 86% and the concentration for half-maximal inhibition (IC50) was found to be 362 nM.

`Cc1nc(Cl)ncc1-c1ccc(NC(=O)Cc2ccccc2Cl)cc1S(N)(=O)=O` [Example 317, N-[4-(2-Chloro-4-methylpyrimidin-5-yl)-3-sulfamoylphenyl]-2-(2-chlorophenyl)acetamide]: the Emax amounted to 68% and the IC50 was determined as 1210 nM.

Take `NS(=O)(=O)c1cc(NC(=O)Cc2ccccc2Cl)ccc1-c1cc(C(F)(F)F)ccn1` [Example 318, 2-(2-Chlorophenyl)-N-{3-sulfamoyl-4-[4-(trifluoromethyl)pyridin-2-yl]phenyl}acetamide]: the Emax amounted to 43% and the IC50 was > 25000 nM.

In the case of `NS(=O)(=O)c1cc(NC(=O)Cc2ccccc2Cl)ccc1-c1ccc(Cl)cn1` [Example 319, 2-(2-Chlorophenyl)-N-[4-(5-chloropyridin-2-yl)-3-sulfamoylphenyl]acetamide], the Emax was 73% and the IC50 was 7280 nM.

As for `Cc1nc(-c2ccc(NC(=O)Cc3ccccc3Cl)cc2S(N)(=O)=O)cn1C` [Example 320, 2-(2-Chlorophenyl)-N-[4-(1,2-dimethyl-1H-imidazol-4-yl)-3-sulfamoylphenyl]acetamide], the Emax was 51% and the IC50 was > 25000 nM.

As for `NS(=O)(=O)c1cc(NC(=O)Cc2ccccc2Cl)ccc1-c1cncc(N2CCCC2)c1` [Example 322, 2-(2-Chlorophenyl)-N-{4-[5-(pyrrolidin-1-yl)pyridin-3-yl]-3-sulfamoylphenyl}acetamide], the Emax was found to be 81% and the IC50 is 186 nM.

`NS(=O)(=O)c1cc(NC(=O)C(O)c2ccccc2Cl)ccc1-c1cnn(C2CC2)c1` (centres unmarked) [Example 323, 2-(2-Chlorophenyl)-N-[4-(1-cyclopropyl-1H-pyrazol-4-yl)-3-sulfamoylphenyl]-2-hydroxyethanamide]: the Emax turned out to be 81% and the IC50 came out at 2580 nM.

With `NS(=O)(=O)c1cc(NC(=O)C(O)c2ccccc2Cl)ccc1-c1cnn(C(F)F)c1` (centres unmarked) [Example 324, 2-(2-Chlorophenyl)-N-{4-[1-(difluoromethyl)-1H-pyrazol-4-yl]-3-sulfamoylphenyl}-2-hydroxyethanamide], the Emax is 59% and the 50% inhibitory concentration (IC50) was found to be 3050 nM.

On to `NS(=O)(=O)c1cc(NC(=O)Cc2ccccc2Cl)ccc1-c1cncc(Cl)c1` [Example 325, 2-(2-Chlorophenyl)-N-[4-(5-chloropyridin-3-yl)-3-sulfamoylphenyl]acetamide], for which the Emax is 94% and the 50% inhibitory concentration (IC50) came to 9 nM.

Consider `NS(=O)(=O)c1cc(NC(=O)Cc2ccccc2Cl)ccc1-c1cncc(F)c1` [Example 327, 2-(2-Chlorophenyl)-N-[4-(5-fluoropyridin-3-yl)-3-sulfamoylphenyl]acetamide], for which the Emax is 94% and the IC50 was found to be 11 nM.

For `CC(C)Cn1cc(-c2ccc(NC(=O)Cc3ccccc3Cl)cc2S(N)(=O)=O)cn1` [Example 328, 2-(2-Chlorophenyl)-N-{4-[1-(2-methylpropyl)-1H-pyrazol-4-yl]-3-sulfamoylphenyl}acetamide], the Emax was determined as 94% and the concentration for half-maximal inhibition (IC50) is 12 nM.

In the case of `NS(=O)(=O)c1cc(NC(=O)Cc2ccccc2Cl)ccc1-c1cnn(C2CCCC2)c1` [Example 329, 2-(2-Chlorophenyl)-N-[4-(1-cyclopentyl-1H-pyrazol-4-yl)-3-sulfamoylphenyl]acetamide], the Emax came out at 100% and the IC50 was 13 nM.

With `CC(C)Oc1cccc(-c2ccc(NC(=O)Cc3ccccc3Cl)cc2S(N)(=O)=O)c1F` [Example 330, 2-(2-Chlorophenyl)-N-[2′-fluoro-3′-(propan-2-yloxy)-2-sulfamoylbiphenyl-4-yl]-acetamide], the Emax was 101% and the IC50 turned out to be 14 nM.

`NS(=O)(=O)c1cc(NC(=O)Cc2ccccc2Cl)ccc1-c1cncc(C(F)(F)F)c1` [Example 331, 2-(2-Chlorophenyl)-N-{3-sulfamoyl-4-[5-(trifluoromethyl)pyridin-3-yl]phenyl}-acetamide]: the Emax amounted to 66%.

In the case of `COc1cc(-c2ccc(NC(=O)Cc3ccccc3Cl)cc2S(N)(=O)=O)cnc1Cl` [Example 332, N-[4-(6-Chloro-5-methoxypyridin-3-yl)-3-sulfamoylphenyl]-2-(2-chlorophenyl)-acetamide], the Emax stood at 89% and the IC50 was determined as 326 nM.

As for `NS(=O)(=O)c1cc(NC(=O)Cc2c(F)cccc2Cl)ccc1-c1cnn(C2CC2)c1` [Example 333, 2-(2-Chloro-6-fluorophenyl)-N-[4-(1-cyclopropyl-1H-pyrazol-4-yl)-3-sulfamoylphenyl]acetamide], the Emax is 101% and the IC50 worked out at 15 nM.

Take `Cn1cc(-c2ccc(NC(=O)Cc3cccc(F)c3Cl)cc2S(N)(=O)=O)cn1` [Example 334, 2-(2-Chloro-3-fluorophenyl)-N-[4-(1-methyl-1H-pyrazol-4-yl)-3-sulfamoylphenyl]-acetamide]: the Emax is 98% and the IC50 came out at 18 nM.

Regarding `CC(C)(C)n1cc(-c2ccc(NC(=O)Cc3ccccc3Cl)cc2S(N)(=O)=O)cn1` [Example 335, N-[4-(1-tert-Butyl-1H-pyrazol-4-yl)-3-sulfamoylphenyl]-2-(2-chlorophenyl)acetamide], the Emax was found to be 98% and the half-maximal inhibitory concentration (IC50) was determined as 20 nM.

As for `CC(C)Oc1ncccc1-c1ccc(NC(=O)Cc2ccccc2Cl)cc1S(N)(=O)=O` [Example 336, 2-(2-Chlorophenyl)-N-{4-[2-(propan-2-yloxy)pyridin-3-yl]-3-sulfamoylphenyl}acetamide], the Emax stood at 109% and the half-maximal inhibitory concentration (IC50) came out at 28 nM.

Take `NS(=O)(=O)c1cc(NC(=O)Cc2cccc(F)c2Cl)ccc1-c1cnn(C2CC2)c1` [Example 337, 2-(2-Chloro-3-fluorophenyl)-N-[4-(1-cyclopropyl-1H-pyrazol-4-yl)-3-sulfamoylphenyl]acetamide]: the Emax was found to be 96% and the half-inhibitory concentration (IC50) came out at 30 nM.

Turning to `NS(=O)(=O)c1cc(NC(=O)Cc2ccccc2F)ccc1-c1cccnc1` [Example 338, 2-(2-Fluorophenyl)-N-[4-(pyridin-3-yl)-3-sulfamoylphenyl]acetamide], the Emax is 91% and the half-maximal inhibitory concentration (IC50) was 32 nM.

For the origin of these results see patent US11524938B2, “Aromatic sulfonamide derivatives” (Bayer Pharma Aktiengesellschaft, priority 2016, dated 2022).
